Columns and labels:
[1] = target: T1, Serine/threonine-protein kinase tousled-like 1 (Homo sapiens) (UniProt Q9UKI8); experiment: Selectivity interaction (ActivX KiNativ screen (kinase selectivity in THP-1 cell lysates)) EUB0000639a TLK1; assay type: subcellular; conditions: lysate, at 1 µM
T1 sequence (whole entry): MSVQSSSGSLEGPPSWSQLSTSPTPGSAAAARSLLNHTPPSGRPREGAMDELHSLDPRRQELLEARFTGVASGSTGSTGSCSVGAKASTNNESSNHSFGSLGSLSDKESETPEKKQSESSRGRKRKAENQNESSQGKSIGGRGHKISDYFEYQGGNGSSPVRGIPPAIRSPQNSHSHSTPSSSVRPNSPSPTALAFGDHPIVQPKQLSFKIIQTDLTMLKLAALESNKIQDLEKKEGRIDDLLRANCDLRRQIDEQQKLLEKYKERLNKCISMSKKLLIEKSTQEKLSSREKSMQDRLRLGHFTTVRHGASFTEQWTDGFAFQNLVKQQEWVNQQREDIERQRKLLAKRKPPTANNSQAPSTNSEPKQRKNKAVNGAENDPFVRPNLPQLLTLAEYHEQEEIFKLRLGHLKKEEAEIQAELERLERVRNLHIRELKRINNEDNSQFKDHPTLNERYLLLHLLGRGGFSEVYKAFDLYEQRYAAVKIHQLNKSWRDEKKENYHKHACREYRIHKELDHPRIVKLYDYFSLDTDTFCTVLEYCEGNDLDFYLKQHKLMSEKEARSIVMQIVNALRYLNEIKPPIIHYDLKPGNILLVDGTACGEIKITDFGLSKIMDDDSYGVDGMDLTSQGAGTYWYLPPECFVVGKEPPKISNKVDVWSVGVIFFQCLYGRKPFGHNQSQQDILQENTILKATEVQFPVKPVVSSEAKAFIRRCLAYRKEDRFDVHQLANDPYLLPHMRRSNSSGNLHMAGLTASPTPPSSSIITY

[2] = target: Rho-associated protein kinase 1 (Homo sapiens) (UniProt Q13464); experiment: Selectivity interaction (SelectScreen profiling (Invitrogen)) EUB0000607a ROCK1; conditions: at 2 µM
[3] = target: T2, Ephrin type-B receptor 1 (Homo sapiens) (UniProt P54762); experiment: Selectivity interaction (KinomeScan (DiscoverX)) EUB0000595a EPHB1; conditions: at 10 µM
T2 sequence (whole entry): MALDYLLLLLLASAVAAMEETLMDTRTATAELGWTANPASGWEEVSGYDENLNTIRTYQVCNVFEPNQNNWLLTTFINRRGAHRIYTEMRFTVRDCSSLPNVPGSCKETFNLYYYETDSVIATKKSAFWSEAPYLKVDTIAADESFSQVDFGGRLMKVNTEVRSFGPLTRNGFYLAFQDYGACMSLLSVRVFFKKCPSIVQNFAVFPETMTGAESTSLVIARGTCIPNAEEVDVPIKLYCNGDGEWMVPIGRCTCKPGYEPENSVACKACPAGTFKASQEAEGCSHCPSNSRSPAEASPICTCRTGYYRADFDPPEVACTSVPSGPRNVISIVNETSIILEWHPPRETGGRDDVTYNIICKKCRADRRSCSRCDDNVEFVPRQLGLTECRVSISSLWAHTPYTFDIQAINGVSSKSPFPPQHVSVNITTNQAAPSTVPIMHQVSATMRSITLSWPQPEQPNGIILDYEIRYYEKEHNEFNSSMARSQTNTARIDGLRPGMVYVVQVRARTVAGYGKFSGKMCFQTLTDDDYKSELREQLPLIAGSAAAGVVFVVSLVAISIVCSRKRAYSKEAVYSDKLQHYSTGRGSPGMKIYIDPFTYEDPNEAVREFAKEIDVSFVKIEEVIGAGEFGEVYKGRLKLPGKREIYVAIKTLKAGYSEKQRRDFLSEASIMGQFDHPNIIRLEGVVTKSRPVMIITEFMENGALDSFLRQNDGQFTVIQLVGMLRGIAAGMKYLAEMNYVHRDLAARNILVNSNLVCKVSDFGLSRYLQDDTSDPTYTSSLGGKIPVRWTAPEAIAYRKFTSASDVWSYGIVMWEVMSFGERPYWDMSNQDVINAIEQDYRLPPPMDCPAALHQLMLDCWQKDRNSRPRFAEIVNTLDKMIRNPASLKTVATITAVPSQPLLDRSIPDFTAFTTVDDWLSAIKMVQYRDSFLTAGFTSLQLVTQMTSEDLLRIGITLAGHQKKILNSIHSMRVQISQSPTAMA

[4] = target: Mitotic checkpoint serine/threonine-protein kinase BUB1 (Homo sapiens, UniProt O43683); experiment: Selectivity interaction (Ambit KINOMEscan and KiNATiv profiling in Jurkat cells) EUB0000090b BUB1; assay type: cell-based; conditions: at 1 µM
[5] = target: T3, Dual specificity protein kinase TTK (Homo sapiens) (UniProt P33981); experiment: Selectivity interaction (KinomeScan (DiscoverX)) EUB0001619a TTK; conditions: at 1 µM
T3 sequence (whole entry): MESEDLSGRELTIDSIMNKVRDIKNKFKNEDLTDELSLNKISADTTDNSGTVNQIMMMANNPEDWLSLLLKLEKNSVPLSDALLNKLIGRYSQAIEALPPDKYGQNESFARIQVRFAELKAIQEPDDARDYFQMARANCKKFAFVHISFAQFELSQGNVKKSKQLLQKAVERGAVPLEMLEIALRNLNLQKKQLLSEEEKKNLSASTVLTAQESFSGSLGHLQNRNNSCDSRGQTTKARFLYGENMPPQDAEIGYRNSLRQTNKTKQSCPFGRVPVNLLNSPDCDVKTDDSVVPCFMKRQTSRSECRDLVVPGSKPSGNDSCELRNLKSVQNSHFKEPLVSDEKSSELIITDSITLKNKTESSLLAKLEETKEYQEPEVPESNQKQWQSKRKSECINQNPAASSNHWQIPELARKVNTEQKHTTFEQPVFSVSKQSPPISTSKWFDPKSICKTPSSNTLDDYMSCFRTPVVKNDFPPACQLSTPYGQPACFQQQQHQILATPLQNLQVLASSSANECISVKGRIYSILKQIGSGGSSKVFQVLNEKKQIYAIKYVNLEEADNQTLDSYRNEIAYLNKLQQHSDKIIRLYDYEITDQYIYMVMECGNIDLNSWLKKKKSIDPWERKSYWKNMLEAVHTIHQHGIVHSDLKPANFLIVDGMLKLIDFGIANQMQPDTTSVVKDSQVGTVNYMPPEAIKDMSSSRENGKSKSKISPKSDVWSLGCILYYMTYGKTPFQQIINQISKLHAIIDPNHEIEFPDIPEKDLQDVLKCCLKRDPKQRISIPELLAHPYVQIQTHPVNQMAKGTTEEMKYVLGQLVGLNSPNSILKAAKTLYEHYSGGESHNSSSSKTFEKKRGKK

Mitotic checkpoint serine/threonine-protein kinase BUB1, sequence (O43683 whole entry, looked up): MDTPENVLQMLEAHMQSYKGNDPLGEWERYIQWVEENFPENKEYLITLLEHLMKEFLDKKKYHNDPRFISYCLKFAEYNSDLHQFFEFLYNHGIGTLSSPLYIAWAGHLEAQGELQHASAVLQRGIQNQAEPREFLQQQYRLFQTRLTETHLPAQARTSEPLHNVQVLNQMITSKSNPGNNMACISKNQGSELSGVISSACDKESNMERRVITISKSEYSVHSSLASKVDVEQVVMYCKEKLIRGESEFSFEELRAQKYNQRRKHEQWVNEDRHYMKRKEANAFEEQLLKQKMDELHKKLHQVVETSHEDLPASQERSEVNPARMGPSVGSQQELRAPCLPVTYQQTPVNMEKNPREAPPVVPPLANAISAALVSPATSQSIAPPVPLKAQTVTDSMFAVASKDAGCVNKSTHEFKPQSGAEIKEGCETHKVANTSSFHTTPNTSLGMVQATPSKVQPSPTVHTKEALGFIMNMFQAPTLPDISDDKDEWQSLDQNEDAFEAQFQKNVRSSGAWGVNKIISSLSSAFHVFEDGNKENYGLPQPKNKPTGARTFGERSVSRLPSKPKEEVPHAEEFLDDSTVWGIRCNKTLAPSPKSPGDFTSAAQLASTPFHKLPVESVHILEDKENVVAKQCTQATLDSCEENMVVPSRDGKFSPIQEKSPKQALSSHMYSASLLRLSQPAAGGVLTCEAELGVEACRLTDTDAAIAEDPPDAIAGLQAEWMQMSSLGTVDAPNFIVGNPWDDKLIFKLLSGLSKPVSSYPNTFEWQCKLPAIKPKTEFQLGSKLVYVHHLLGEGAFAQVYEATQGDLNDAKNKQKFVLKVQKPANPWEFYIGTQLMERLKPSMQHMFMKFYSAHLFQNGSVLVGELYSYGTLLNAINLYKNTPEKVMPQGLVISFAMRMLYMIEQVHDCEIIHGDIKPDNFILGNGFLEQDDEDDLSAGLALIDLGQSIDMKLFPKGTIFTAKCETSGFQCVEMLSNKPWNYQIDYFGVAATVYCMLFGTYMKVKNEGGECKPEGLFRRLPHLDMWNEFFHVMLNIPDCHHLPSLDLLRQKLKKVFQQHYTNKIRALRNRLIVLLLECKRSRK
Rho-associated protein kinase 1 (Homo sapiens), sequence (Q13464 2-1354 limits assumed): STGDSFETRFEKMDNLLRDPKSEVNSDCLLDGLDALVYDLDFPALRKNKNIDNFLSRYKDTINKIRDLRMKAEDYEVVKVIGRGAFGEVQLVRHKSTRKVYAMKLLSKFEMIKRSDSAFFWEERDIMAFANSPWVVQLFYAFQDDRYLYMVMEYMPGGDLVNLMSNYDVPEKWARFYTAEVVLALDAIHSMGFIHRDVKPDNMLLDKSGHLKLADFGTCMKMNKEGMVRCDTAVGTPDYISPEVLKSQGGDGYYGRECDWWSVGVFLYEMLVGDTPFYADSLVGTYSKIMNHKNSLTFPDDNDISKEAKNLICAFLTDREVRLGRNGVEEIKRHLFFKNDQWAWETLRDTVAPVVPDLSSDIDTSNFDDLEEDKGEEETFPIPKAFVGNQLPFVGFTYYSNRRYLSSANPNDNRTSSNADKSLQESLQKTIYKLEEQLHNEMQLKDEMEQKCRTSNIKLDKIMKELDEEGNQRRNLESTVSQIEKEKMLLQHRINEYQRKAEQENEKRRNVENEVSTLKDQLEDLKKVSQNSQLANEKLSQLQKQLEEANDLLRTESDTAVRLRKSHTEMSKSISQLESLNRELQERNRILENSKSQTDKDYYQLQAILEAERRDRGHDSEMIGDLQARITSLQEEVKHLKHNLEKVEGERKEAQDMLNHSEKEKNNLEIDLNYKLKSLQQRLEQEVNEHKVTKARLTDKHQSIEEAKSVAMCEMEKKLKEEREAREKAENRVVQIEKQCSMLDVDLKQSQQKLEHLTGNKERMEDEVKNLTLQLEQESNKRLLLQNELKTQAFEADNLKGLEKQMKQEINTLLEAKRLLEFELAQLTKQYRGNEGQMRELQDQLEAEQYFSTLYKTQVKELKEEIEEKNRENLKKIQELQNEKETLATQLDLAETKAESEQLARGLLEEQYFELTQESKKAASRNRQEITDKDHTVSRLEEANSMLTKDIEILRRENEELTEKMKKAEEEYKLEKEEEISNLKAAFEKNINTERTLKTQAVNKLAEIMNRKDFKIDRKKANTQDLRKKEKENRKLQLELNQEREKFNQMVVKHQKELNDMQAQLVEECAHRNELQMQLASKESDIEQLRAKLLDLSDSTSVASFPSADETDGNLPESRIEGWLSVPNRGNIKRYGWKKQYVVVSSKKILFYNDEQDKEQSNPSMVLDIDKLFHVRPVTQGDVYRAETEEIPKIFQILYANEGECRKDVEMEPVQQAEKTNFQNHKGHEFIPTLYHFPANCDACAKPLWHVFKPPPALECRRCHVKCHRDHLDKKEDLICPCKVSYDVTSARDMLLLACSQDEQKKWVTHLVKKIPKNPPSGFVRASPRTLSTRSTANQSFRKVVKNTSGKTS

Work on `CC[C@@H]1[C@H](F)C(=O)N[C@@H]1COc1nccc2cc(C(N)=O)c(OC)cc12` [ZIMLOVISERTIB] yielded a % of inhibition [1] of 34.3%.
`CNC(=O)Nc1ccc(-c2nc(N3CC4CCC(C3)O4)c3cnn(C4CCC5(CC4)OCCO5)c3n2)cc1` showed a % of inhibition [2] of -8%.
Compound `COCC(=O)NC/C=C/c1ccc2ncnc(Nc3ccc(Oc4ccc(C)nc4)c(C)c3)c2c1` [CP-724714] has a % of control [3] of 100%.
With `CN(C)C/C=C/C(=O)Nc1ccc(C(=O)N2CCCC(Nc3ncc(Cl)c(-c4c[nH]c5ccccc45)n3)C2)cc1` (stereo not given) the % of control [4] was 96%.
In the case of `N#Cc1cccc(-c2c[nH]c3ncnc(N4CCOCC4)c23)c1`, the % of control [5] is reported as 92%.

From ChEMBL document CHEMBL5465560, “Selectivity Literature for EUbOPEN Chemogenomic Library” (2024)
